Consider 13 compounds from paper PMC10126419, “pyHeart4Fish: Chamber-specific heart phenotype quantification of zebrafish in high-content screens” (Frontiers in Cell and Developmental Biology, 2023).

Series [1] relates to zebrafish embryos. The experiment in a line: Gross morphology / development of treated zebrafish 2 dpf (brightfield). Format: in vivo. The settings on record: 20 µM; for Gross morphology / developmental and teratogenic effects: 2 dpf. On the procedure: FIGURE 5 Morphology of treated zebrafish 2 dpf. An overview of the gross phenotypes of treated zebrafish 2 days post-fertilization. All compounds were dissolved in DMSO; therefore, DMSO served as the negative control. NaCl served as the salt control. The effects of atorvastatin treatment on zebrafish embryos were previously established; thus, this drug was used as a positive control for cardioactivity. The aquatic toxic compound enilconazole was used as the toxic positive control. […] The black arrow in the image of iopanoic acid-treated zebrafish embryo indicates caudal fin deformity. The scale bar indicates 500 µm in overview brightfield images and 150 µm in fluorescence images. (a) Atrium; (v) ventricle.

Series [2] relates to Tg(myl7:eGFP)^twu34/+ zebrafish embryos. The experiment in a line: Chamber-specific quantitative heart phenotyping with pyHeart4Fish.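 On all read-outs here: embryos exposed 24 h from 24 hpf in 0.2% DMSO egg water, tricaine-anaesthetised, heartbeat videos imaged at 470 nm and hearts analysed chamber by chamber from pixel-intensity beat curves.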 The settings on record: 20 µM; for Effect on heart function / morphology: contractility, conduction, arrhythmia, HS, EF / Effect on heart rate: vs DMSO controls; for Arrhythmia / Conduction defect: number of fish.
Description: (§1) Embryos were dechorionated at 21 hpf using 0.22 mg/ml pronase (Merck Chemicals) for 12 min. Then, embryos were carefully washed three times with egg water and transferred into a 96-deep-well plate. After incubation at 28°C for 3 h, excess water was removed with a glass capillary and exchanged with 100 µL/well of 20 µM compound solution from the Prestwick Chemical Library (Prestwick Chemicals, France) in 0.2% DMSO (v/v) in egg water. […] Subsequently, embryos were exposed to compounds for 24 h at 28°C in the dark to enable testing of light-sensitive compounds. Solutions were removed at 48 hpf before wells containing embryos were washed three times with system water. Then, treated embryos were transferred into 12-well plates containing 1 ml 0.03% tricaine in system water (Sigma-Aldrich, Germany). Testing different concentrations (5–80 µM) of compounds and their respective controls followed the above protocol.
Oriented embryos in 96-well plates were automatically imaged using an [sequence] Imaging Machine ([sequence] Imaging, Germany) widefield microscope. Z-stacks of 10 slices (dZ = 15 µm) were acquired in brightfield (BF) and 470 nm channels with a 4×0.13 numerical aperture objective. The focal plane was detected in the 470 nm channel using a course and secondary fine software autofocus. BF integration time was fixed at 20 ms exposure time and 55% LED intensity. The exposure time for the 470 nm channel was set to 10 ms with a 10% LED intensity. Heartbeat videos of 6 s at 6 frames/second (f/s) were acquired with a time-lapse at a 0 s interval in the focus plane acquired after secondary autofocus using the previously described integration and exposure settings with a 10×0.25 numerical aperture objective.
Hearts are analyzed chamber-specifically via the user-assisted region of interest (ROI) selection. Cardiac morphology parameters (HS and shape) are extracted as the median of the first six images/frames. Raw data of heartbeat curves for the atrium and ventricle are derived from the sum of pixel intensities and normalized chamber areas. Frequencies (in s^-1) of atrium and ventricle contraction are obtained by applying sine-curve fitting or fast Fourier transformation (FFT) using the SciPy modules “optimize.curve_fit” and “fft.rfft/fft.rfftfreq”, respectively ([Virtanen et al., 2020]). Curve fitting is performed with a maximum of 30 iterations while increasing the frequencies of the fitted sine function. The best fit is selected using the correlation coefficient between the raw data and the fitted function implemented in the NumPy package. A fitted sine function and fitting score are also determined for a truncated signal (first quarter), and the best-fitted sine function is kept to account for an unstable heartbeat signal. In the case of FFT, the first harmonic of the FFT signal is used as the frequency of the atrium or ventricle contraction. Analysis with pyHeart4Fish provides heartbeat videos in GIF format, heartbeat curves as PNG/PDF files and a data sheet containing meta information and cardiac parameters.
For series [3], the system named is zebrafish embryos. Briefly: Manually assessed pericardial edema in treated zebrafish. It counts as in vivo. The settings on record: 20 µM; for Edema: Mild / Edema: Moderate / Edema: No edema / Edema: Severe: number of fish, Tg(myl7:eGFP); for Pericardial edema severity: myl7:eGFP zebrafish. From the text:
FIGURE 4 Quantitative data analysis with pyHeart4Fish. […] (A) The left graph presents the detected heart rate derived from the fast fourier transformation (FFT). […] (B) Percentual data on the severity of manually assessed pericardial edema in treated Tg(myl7:eGPF)^twu34/+ zebrafish. (C) The relative contractility derived from percentual size changes of each heart chamber (left graph). Approximate ejection fraction determined by chamber volume changes (right graph). […] The number of fish analyzed is shown in brackets after the treatment condition. Dotted gray lines indicate z-scores of ±1.96 and statistical significance with an alpha error of 5%.

The subject of series [4] is zebrafish embryos. The experiment in a line: Toxicity score (ToxScore) at increasing compound concentrations. The settings on record: for ToxScore: 80 µM.
Description: as §1
Embryos that were deceased and not intact were assigned a max. ToxScore value of 5.
The test system of series [5] is Tg(fli1a:nEGFP)^y7 zebrafish embryos. Briefly: Primary high-content heart rate screen of the Prestwick Chemical Library (HeartBeat software v.2.1). Format: in vivo. Particulars: Tg(fli1a:nEGFP)^y7, zebrafish, in vivo, 24 h, 20 µM. From the text:
Acquired image series were preprocessed and analyzed using the previously published HeartBeat software v.2.1 and provided scripts ([Gierten et al., 2020]). For increased comparability between experiments, each quantitative HR value (beats per minute) was divided by the mean of the DMSO controls from the respective experiment. This procedure minimizes variation and creates specific fold-change values that are z-score normalized in the next step. A 90% CI was used to reduce the probability of false-negative results. Finally, data from compounds with insufficient N and known aquatic toxicity were removed.
Based on a previously established high-throughput screening pipeline, we performed a high-content drug screen in zebrafish for cardiovascular modulators ([Poureetezadi et al., 2014]; [Gierten et al., 2020]; [Westhoff et al., 2020]). […] About 98% of the library’s compounds are approved by the Food and Drug Administration (FDA), European Medicines Agency (EMA) or other regulatory agencies. The drug library was screened at a concentration of 20 µM for 24 h until 48 hpf using the transgenic zebrafish line Tg(fli1a:nEGFP)^y7. Subsequently, BF images and videos were captured at 2 dpf to assess gross morphology. HR was analyzed with the previously published tool HeartBeat (v.2.1) to identify potential hit compounds. A 90% CI threshold for effect sizes of ±1.64 was used to reduce false-negative results. […] The Open Targets platform and the Mayo Clinic Drugs and Supplements Database were systematically searched for compound names and common synonyms ([Drugs and Supplements, 2022]; [Open Targets, 2022]). The Medical Subject Headings (MeSH) terms “compound name” and “heart rate” were applied to NCBI PubMed literature research before the first five pages of publications sorted by relevance were screened for relevant information. Furthermore, compounds were filtered for unknown targets (n = 3), FDA black box warning (n = 6) and aquatic toxicity (n = 4). […] Therefore, compounds with n < 3 were excluded (n = 7).

Series [6] concerns Tg(myl7:eGFP)^twu34/+ zebrafish embryos. The settings on record: 20 µM; for Embryos with Mobitz type II atrioventricular block (AVB): Tg(myl7:eGFP)^twu34/+, zebrafish, in vivo, 24 h.
Excerpt: Nevertheless, it is advised that arrhythmia types are confirmed manually, as was done in this study.
On the set-up of series [7]: method as in Prestwick Chemical Library. Particulars: solvents; library annotation, ref Prestwick Chemical Library; cited from earlier work.
Details of series [8]: method as in Prestwick Chemical Library. The settings on record: library annotation, ref Prestwick Chemical Library; cited from earlier work.

“Also recorded” adds a separate entry of the source. Counter-ions that a name gives are not always drawn.

`Oc1ccc(OCc2ccccc2)cc1` [Monobenzone]: the “Gross morphology / developmental and teratogenic effects” value with zebrafish embryos [1] was “caused depigmentation without delaying development”. For the same compound, in series [2], the “Effect on heart function / morphology: contractility, conduction, arrhythmia, HS, EF” value (from here on “Effect on heart function / morphology”) was “did not cause any other alterations to heart phenotypes”; the Arrhythmia was found to be 3; the Conduction defect came out at 0. In the series with zebrafish embryos [3], the “Edema: Mild” value was 3, the “Edema: Moderate” value is 2, the “Edema: No edema” value is listed as 3 and the “Edema: Severe” value is listed as 2. In addition, in the series with zebrafish embryos [4], the ToxScore is reported as no more than 2.5.

Regarding `Cc1cc(/C=C/c2ccc3cc(N(C)C)ccc3[n+]2C)c(C)n1-c1ccccc1` [Pyrvinium pamoate], the “Gross morphology / developmental and teratogenic effects” value with zebrafish embryos [1] is listed as “no teratogenic effects”. Besides, in series [2], the “Effect on heart function / morphology” value was “did not affect relative contractility, conduction, and HS”; the Arrhythmia amounted to 1; the Conduction defect was determined as 0. Moreover, in the series with zebrafish embryos [3], the “Edema: Mild” value was determined as 1, the “Edema: Moderate” value stood at 0, the “Edema: No edema” value amounted to 4 and the “Edema: Severe” value is listed as 0.

`CN(C)CCN(Cc1ccc(Cl)cc1)c1ccccn1` [Chloropyramine HCl, chloropyramine HCl]: the “Z-score Heart rate” value in series [5] was -2.971 z-score. In addition, the “Embryos with Mobitz type II atrioventricular block (AVB)” value in series [6] turned out to be 18.2%. Besides, the “Lit. Solubility” value in series [7] is listed as “DMSO”. Also, in series [2], the “Effect on heart function / morphology” value is “a slower HR in the ventricle than in the atrium”; the “Effect on heart rate” value is given as “decreased HR”; the Arrhythmia is 0; the Conduction defect is 2. For the same compound, in the series with zebrafish embryos [3], the “Edema: Mild” value is reported as 4, the “Edema: Moderate” value came to 7, the “Edema: No edema” value is 0 and the “Edema: Severe” value is on record as 0. In the series on zebrafish embryos [4], the ToxScore worked out at 4.8.

Take `CNCC[C@@H](Oc1cccc2ccccc12)c1cccs1` [(R)-Duloxetine HCl]: in series [6], the “Treated embryos with atrial flutter” value was found to be 33%. In addition, the “Fraction of embryos with atrial flutter” value in series [6] (manual analysis of heartbeat videos) is “one-third”. For the same compound, in series [2], the “Effect on heart rate” value is “not significantly decreased”, the Arrhythmia is given as 0 and the Conduction defect was 2. Besides, in the series with zebrafish embryos [3], the “Edema: Mild” value amounted to 1, the “Edema: Moderate” value worked out at 3, the “Edema: No edema” value is listed as 0 and the “Edema: Severe” value worked out at 2. The “Concentration-dependent toxic effects” value in the series with zebrafish embryos [4] (5–80 µM, listed as DLX) was “dose-dependently increased the ToxScore; also recorded: complete lethality at 80 µM”.

Turning to `Cc1cccc(CN2CCN(C(c3ccccc3)c3ccc(Cl)cc3)CC2)c1.Cl.Cl` (centres unmarked) [Meclozine dihydrochloride], the “Lit. Solubility” value in series [7] is recorded as “CHCl3, pyridine”. Further, the “Metabolism: tissue” value in series [8] was “Liver”.

As for `CN(C)CCN(Cc1ccccc1)c1ccccn1` [Tripelennamine HCl, tripelennamine HCl], the “Gross morphology / developmental and teratogenic effects” value in the series on zebrafish embryos [1] is on record as “development was not delayed”. For the same compound, the “Z-score Heart rate” value in series [5] is recorded as -2.358 z-score. Further, in series [7], the “Lit. Solubility” value is recorded as “DMSO”. Moreover, in series [2], the “Effect on heart rate” value is listed as “decreased HR”, the Arrhythmia turned out to be 0 and the Conduction defect is 0. In addition, in the series on zebrafish embryos [3], the “Edema: Mild” value came to 4, the “Edema: Moderate” value turned out to be 5, the “Edema: No edema” value was determined as 2 and the “Edema: Severe” value is reported as 0. In the series with zebrafish embryos [4] (5–80 µM), the “ToxScore, highest over tested concentrations” value is no more than 2.6.

Take `CN(C)CCN(Cc1cccs1)c1ccccn1` [Methapyrilene HCl, methapyrilene HCl]: in series [5], the “Z-score Heart rate” value is -2.21 z-score. Further, the “Embryos with Mobitz type II atrioventricular block (AVB)” value in series [6] was determined as 50%. Further, the “Lit. Solubility” value in series [7] is reported as “H2O, EtOH, CHCl3”. Moreover, in series [2], the “Effect on heart rate” value is reported as “decreased HR”, the Arrhythmia came to 2 and the Conduction defect turned out to be 2. Besides, in the series with zebrafish embryos [3], the “Edema: Mild” value was found to be 1, the “Edema: Moderate” value worked out at 2, the “Edema: No edema” value was found to be 1 and the “Edema: Severe” value stood at 1.

As for `CC(=O)[C@H]1CC[C@H]2[C@@H]3CC=C4C[C@@H](O)CC[C@]4(C)[C@H]3CC[C@]12C` [Pregnenolone], the “Gross morphology / developmental and teratogenic effects” value with zebrafish embryos [1] was “teratogenic effects”. Besides, the “Effect on heart function / morphology” value in series [2] (listed as P5) is “relative contractility of both heart chambers was affected by impaired contraction; also recorded: HS and morphology were not affected”. Also, in series [2], the Arrhythmia is reported as 1 and the Conduction defect is listed as 1. For the same compound, in the series with zebrafish embryos [3], the “Pericardial edema severity” value is “moderate to severe pericardial and yolk edema”; the “Edema: Mild” value was 1; the “Edema: Moderate” value is given as 3; the “Edema: No edema” value came out at 0. For the same compound, the “Edema: Severe” value in the series on zebrafish embryos [3] is listed as 1.

Regarding `OCCN1CCN(CCCN2c3ccccc3C=Cc3ccccc32)CC1` [Opipramol diHCl], in the series with zebrafish embryos [1], the “Gross morphology / developmental and teratogenic effects” value is reported as “mild developmental delay”. In addition, in series [2], the “Effect on heart function / morphology” value is reported as “do not induce arrhythmia”; the “Effect on heart rate” value is listed as “did not affect HR”; the Arrhythmia is recorded as 1; the Conduction defect amounted to 0. Moreover, in series [2] (listed as OPI), the “Effect on heart function / morphology” value is reported as “significantly reduced relative ventricular contractility”. In addition, in the series with zebrafish embryos [3], the “Pericardial edema severity” value is on record as “mild edema”, the “Edema: Mild” value was 5, the “Edema: Moderate” value is 0 and the “Edema: No edema” value was 0. For the same compound, the “Edema: Severe” value in the series on zebrafish embryos [3] is 0.

On to `COc1ccc(CCN2CCC(Nc3nc4ccccc4n3Cc3ccc(F)cc3)CC2)cc1` [Astemizole], for which, in series [5], the “Z-score Heart rate” value was -7.189 z-score. Moreover, the “Lit. Solubility” value in series [7] is recorded as “CH2Cl2, MeOH”. In series [8], the “Metabolism: tissue” value is recorded as “Liver”.

On to `C=CCOC(Cn1ccnc1)c1ccc(Cl)cc1Cl` (centres unmarked) [Enilconazole, enilconazole], for which the “Gross morphology / developmental and teratogenic effects” value in the series with zebrafish embryos [1] was “inhibited pigmentation”. Also, the “Treated fish with developmental delays” value with zebrafish embryos [1] (both zebrafish lines) is 100%. Moreover, in series [2], the “Effect on heart rate” value is “significantly reduced HR”, the Arrhythmia turned out to be 1 and the Conduction defect is given as 0. For the same compound, in the series on zebrafish embryos [3], the “Edema: Mild” value came to 2, the “Edema: Moderate” value was 0, the “Edema: No edema” value came out at 3 and the “Edema: Severe” value is listed as 0. Further, the “Concentration-dependent toxic effects” value in the series with zebrafish embryos [4] (5–80 µM) was “dose-dependent”.

Turning to `N=C(N)c1ccc(OCCCCCOc2ccc(C(=N)N)cc2)cc1` [Pentamidine isethionate], the “Gross morphology / developmental and teratogenic effects” value in the series with zebrafish embryos [1] is reported as “did not reveal teratogenic effects”. For the same compound, in series [2], the Arrhythmia is on record as 1 and the Conduction defect is listed as 0. Moreover, in the series with zebrafish embryos [3], the “Edema: Mild” value was 4, the “Edema: Moderate” value is recorded as 0, the “Edema: No edema” value was 4 and the “Edema: Severe” value was 0.

Regarding `CC(C)(C)c1ccc(C(O)CCCN2CCC(C(O)(c3ccccc3)c3ccccc3)CC2)cc1` (centres unmarked) [Terfenadine], the “Z-score Heart rate” value in series [5] is -5.761 z-score. For the same compound, the “Lit. Solubility” value in series [7] is listed as “EtOH/H2O:50/50”.
